Experimental data taken from patent US20060069132A1, “Azolecarboxamide herbicides” (priority 2004, published 2006).

How the values were obtained:
morningglory [1] = assay: Test B pre-/postemergence herbicide test; assay type: in vivo, Ipomoea coccinea
Outline: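 Flooded paddy rice and barnyardgrass were treated at the 2-leaf stage; upland plantings received compound either on sown seed or on 1- to 4-leaf seedlings. All were kept 13–15 days in a greenhouse and scored visually, 0–100, relative to untreated plants.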

morningglory [2] = assay: Test C pre-/postemergence herbicide test; assay type: in vivo, Ipomoea coccinea; design: key to Plant response rating, Morningglory: 0 = no effect, 100 = complete control
Outline: (§1)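 Greenhouse-grown plants were evaluated visually 12 to 14 days after treatment, with 100 meaning complete control and 0 no effect. Application was preemergence, or postemergence at 2 to 18 cm.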

bermudagrass = assay: Test C pre-/postemergence herbicide test; assay type: in vivo, Cynodon dactylon; conditions: for Bermudagrass plant response rating: 500 g ai/ha
Outline: as §1

[3] = tested on: smallflower umbrella sedge; assay: Test C flooded paddy test; assay type: in vivo, Cyperus difformis; conditions: for Plant response rating, Sedge, Umbrella: 500 g ai/ha, visual rating after 12 to 14 days
rice = assay: Test B pre-/postemergence herbicide test; assay type: in vivo, Oryza sativa; conditions: preemergence
Outline: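 Herbicidal effect was judged by eye on a 0–100 scale after plants stood 13 to 15 days in the greenhouse following pre- or postemergence treatment with surfactant-containing formulations.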

barnyardgrass = assay: Test B flooded paddy test; assay type: in vivo, Echinochloa crus-galli; conditions: 1000 g ai/ha, scale 0 to 100 (0 no effect, 100 complete control)
Outline: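 After treating 2-leaf paddy plants or 2–18 cm postemergence plants (1 to 4 leaves) with formulated chemical, researchers kept them in a greenhouse for 13–15 days. Effects were judged visually versus controls: 0 indicates none, 100 total control.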

[4] = 125 g ai/ha; 0 = no effect, 100 = complete control; preemergence
[5] = 125 g ai/ha; visual rating, scale 0 (no effect) to 100 (complete control); postemergence
[6] = 500 g ai/ha; visual rating, 0 = no effect, 100 = complete control; preemergence
[7] = postemergence, 500 g ai/ha; scale 0 to 100, 0 is no effect, 100 is complete control
[8] = 62 g ai/ha, preemergence, scale 0 to 100
[9] = 125 g ai/ha, scale 0 (no effect) to 100 (complete control), visual, 12 to 14 days, preemergence
[10] = 250 g ai/ha, scale 0-100, preemergence
[11] = 500 g ai/ha, scale 0 to 100 (0 no effect, 100 complete control), visual, 12 to 14 days, preemergence
[12] = 62 g ai/ha, preemergence, scale 0 to 100, 0 no effect, 100 complete control
[13] = Preemergence, scale 0 to 100, 0 no effect, 100 complete control
[14] = 125 g ai/ha, scale 0 to 100 (0 no effect, 100 complete control)
[15] = 250 g ai/ha, scale of 0 to 100, 0 is no effect, 100 is complete control
[16] = scale 0 to 100 (0 no effect, 100 complete control)
[17] = 125 g ai/ha, 0 = no effect, 100 = complete control
[18] = 500 g ai/ha, visual rating, 0 = no effect, 100 = complete control
[19] = postemergence, 125 g ai/ha; visual rating, scale 0 (no effect) to 100 (complete control)
[20] = 62 g ai/ha, scale 0 to 100 (0 no effect, 100 complete control)
[21] = Postemergence, 250 g ai/ha, scale 0 to 100, 0 no effect, 100 complete control
[22] = postemergence, 125 g ai/ha, scale 0 to 100
[23] = postemergence, 62 g ai/ha, scale 0 to 100
[24] = 31 g ai/ha, preemergence, scale 0 to 100

| SMILES | Morningglory plant response rating (0 to 100 scale) (morningglory [1]; [4]) | Morningglory plant response rating (morningglory [1]; [5]) | Plant response rating, Morningglory (morningglory [1]; [6]) | Morningglory plant response rating (morningglory [1]; [7]) | Plant response rating, Morningglory (morningglory [2]; [8]) | Plant response rating, Morningglory (morningglory [2]; [9]) | Plant response rating, Morningglory (morningglory [2]; [10]) | Plant response rating, Morningglory (morningglory [2]; [11]) | Plant response rating, Bermudagrass (bermudagrass; [12]) | Plant response rating, Bermudagrass (bermudagrass; [9]) | Plant response rating, Bermudagrass (bermudagrass; [10]) | Bermudagrass plant response rating (bermudagrass; [13]) | Sedge, Umbrella plant response rating ([3]; 62 g ai/ha, scale 0 to 100) | Sedge, Umbrella plant response rating [3, 14] | Sedge, Umbrella plant response rating [3, 15] | Plant response rating, Sedge, Umbrella [3, 16] | Rice plant response rating (0 to 100 scale) (rice; [17]) | Plant response rating, Rice (rice; [18]) | Barnyardgrass plant response rating (barnyardgrass) | Morningglory plant response rating (morningglory [1]; [19]) | also measured |
| --- | --- | --- | --- | --- | --- | --- | --- | --- | --- | --- | --- | --- | --- | --- | --- | --- | --- | --- | --- | --- | --- |
| CCn1nc(C2(C)CC2)cc1C(=O)Nc1cccc(C(=O)N2CC=CC2)c1 [Compound 304] | 10 | 100 | 10 | 100 | 0 | 10 | 10 | 10 | 5 | 70 | 100 | 100 | 75 | 90 | 95 | 95 | 0 | 20 | 80 | – | – |
| CCn1nc(C(C)(C)C)cc1C(=O)Nc1cc(C(=O)N2CCCC2)ccc1F [Compound 242] | 0 | – | 10 | 40 | 0 | 0 | 0 | 15 | 95 | 100 | 100 | 100 | – | 75 | 85 | 85 | 50 | 80 | 90 | 20 | Sedge, Umbrella plant response rating [3, 20]: 45 |
| CCn1nc(C(C)(C)C)cc1C(=O)Nc1cccc(OC(F)(F)C(F)F)c1 [Compound 333] | – | 30 | 10 | 60 | 0 | 0 | 0 | 10 | 40 | 85 | 100 | 100 | 0 | 15 | 30 | 80 | – | 0 | 50 | – | Plant response rating (0 to 100 scale), Morningglory (morningglory [1]; 125 g ai/ha; 0 is no effect, 100 is complete control; preemergence): 0; Morningglory plant response rating (morningglory [2]; Postemergence, 500 g ai/ha, scale 0 to 100): 10; Plant response rating, Morningglory (morningglory [2]; [21]): 10; Plant response rating, Morningglory (morningglory [2]; [22]): 0; Plant response rating, Morningglory (morningglory [2]; [23]): 0; Bermudagrass plant response rating (bermudagrass; Postemergence, scale 0 to 100): 5; Plant response rating, Bermudagrass (bermudagrass; [21]): 5; Plant response rating, Bermudagrass (bermudagrass; [22]): 0; Plant response rating, Bermudagrass (bermudagrass; [23]): 0; Plant response rating (0 to 100 scale), Rice (rice; 125 g ai/ha, 0 is no effect, 100 is complete control): 0 |
| CCN1N=C(C(C)(C)C)CC1C(=O)Nc1cc(C(=O)N2CCCC2)ccc1F (racemic) [Compound 309] | 0 | 0 | 0 | 40 | 0 | 5 | 5 | 40 | 90 | 90 | 95 | 100 | 80 | 80 | 80 | 80 | 70 | 90 | 90 | – | – |
| CCC(=NO)c1cccc(NC(=O)c2cc(C(C)(C)C)nn2C)c1 [Compound 118] | – | – | – | – | – | 30 | – | – | – | 100 | – | – | – | – | 50 | 50 | – | – | – | 20 | Plant response rating, Morningglory (morningglory [1]; 500 g ai/ha; visual rating 0-100, 0 no effect, 100 complete control; preemergence): 60; Plant response rating, Morningglory (morningglory [1]; Postemergence, 500 g ai/ha; visual rating after 13 to 15 days, scale 0 (no effect) to 100 (complete control)): 70; Plant response rating, Morningglory (morningglory [1]; preemergence, 125 g ai/ha; 0 to 100 scale, 0 is no effect, 100 is complete control): 10; Plant response rating, Morningglory (morningglory [2]; [24]): 0; Plant response rating (0 = no effect, 100 = complete control), Morningglory (morningglory [2]; 62 g ai/ha, preemergence): 20; Plant response rating, Bermudagrass (bermudagrass; 16 g ai/ha, scale 0 to 100, 0 no effect, 100 complete control, last section of Table C (species set of preemergence test)): 0; Plant response rating, Bermudagrass (bermudagrass; [24]): 30; Plant response rating (0 = no effect, 100 = complete control), Bermudagrass (bermudagrass; 62 g ai/ha, preemergence): 90; Sedge, Umbrella plant response rating [3, 20]: 0; Sedge, Umbrella plant response rating ([3]; 125 g ai/ha, scale of 0 to 100, 0 is no effect, 100 is complete control): 50; Plant response rating, Rice (rice; 125 g ai/ha, 0 to 100 scale, 0 is no effect, 100 is complete control): 0; Barnyardgrass plant response rating (barnyardgrass; visual rating, 13 to 15 days): 50 |
